For one series, the target named is T1, PDE3A recombinant enzyme (Homo sapiens, UniProt Q14432).
T1 construct: purchased BPS 79736
Put plainly: In vitro assay of inhibitory activity against PDE 3A enzyme (FP, FAM-cAMP). It counts as biochemical. To be noted: in vitro screening assay. Here is the method: (§1) • 1. In vitro assay of the inhibitory activity of compounds against PDE 3A and PDE 4B2 enzymes
(§2) • Envision 2104 Multilabel Reader (PerkinElmer) • Black 96-well Plate (Cat #6005540, PerkinElmer) • PDE3A Assay Kit (BPS, Cat. 79736), PDE4B2 Assay Kit (BPS, Cat. 60343) • PDE3A recombinant enzyme • PDE4B2 recombinant enzyme • FAM-Cyclic-3′, 5′-AMP • PDE assay buffer • Binding Agent • Binding Agent Diluent (cAMP)
(§3) • 1) Prepare FAM cAMP working solution: 20 μL of FAM-Cyclic-3′,5′-AMP stock was added to 1980 μL of PDE assay buffer. The mixture was added to all wells at 25 μL/well. • 2) Prepare compound solution: the test compounds were dissolved in DMSO to give a 10 mM stock solution. The compound stock solution was diluted with DMSO to a 100× Top Dose diluent. 5 μL of 100× Top Dose diluent was added to 45 μL of PDE assay buffer to prepare a compound Top Dose working solution. Then, the compound working solution was subjected to double dilution with PDE assay buffer containing 10% DMSO to prepare compound working solutions of various concentrations. The compound working solutions were added to compound wells at 5 μL/well. 5 μL of PDE assay buffer containing 10% DMSO was added to each control well. • 3) Prepare PDE enzyme solution: PDE3A and PDE4B2 enzyme stock solutions were diluted to 150 pg/μL and 50 pg/μL, respectively, with PDE assay buffer, and added to all compound wells and Vehicle control wells at 20 μL/well. 20 μL of PDE assay buffer was added to Blank control wells. • 4) React at room temperature for 1 h. • 5) Prepare Binding Agent: 80 μL of binding agent was added to 7920 μL of binding agent diluent, and the mixture was mixed well and added to all wells at 100 μL/well. • 6) React at room temperature for 1 h. • 7) Read FP on Envision. • 8) Calculation formula for original data:
(§4) % inhibition rate=(FPV−FPS)/(FPV−FPB)×100% • FPS=sample FP • FPV=Vehicle control FP • FPB=Blank control FP.
(§5) Nonlinear regression analysis of log[dose]-inhibition rate was performed by graphpad and IC50 was calculated.

Series [1] concerns the target T2, PDE4B2 recombinant enzyme (Homo sapiens, UniProt Q07343).
T2 construct: purchased BPS 60343
The series can be described thus: In vitro assay of inhibitory activity against PDE 4B2 enzyme (FP, FAM-cAMP). To be noted: in vitro screening assay. It is filed as biochemical. The method, then: as §1, §2, §3, §4, §5

A further series has as its system PDE4. To be noted: biological activity data, background; cited from earlier work.
For series [2] the following is noted: reported in WO 2000058308 A1; cited from earlier work.
The conditions of series [3]: reported in WO 2000058308 A1; cited from earlier work. The source holds these as a separate data set.

T1 sequence (Q14432 whole entry): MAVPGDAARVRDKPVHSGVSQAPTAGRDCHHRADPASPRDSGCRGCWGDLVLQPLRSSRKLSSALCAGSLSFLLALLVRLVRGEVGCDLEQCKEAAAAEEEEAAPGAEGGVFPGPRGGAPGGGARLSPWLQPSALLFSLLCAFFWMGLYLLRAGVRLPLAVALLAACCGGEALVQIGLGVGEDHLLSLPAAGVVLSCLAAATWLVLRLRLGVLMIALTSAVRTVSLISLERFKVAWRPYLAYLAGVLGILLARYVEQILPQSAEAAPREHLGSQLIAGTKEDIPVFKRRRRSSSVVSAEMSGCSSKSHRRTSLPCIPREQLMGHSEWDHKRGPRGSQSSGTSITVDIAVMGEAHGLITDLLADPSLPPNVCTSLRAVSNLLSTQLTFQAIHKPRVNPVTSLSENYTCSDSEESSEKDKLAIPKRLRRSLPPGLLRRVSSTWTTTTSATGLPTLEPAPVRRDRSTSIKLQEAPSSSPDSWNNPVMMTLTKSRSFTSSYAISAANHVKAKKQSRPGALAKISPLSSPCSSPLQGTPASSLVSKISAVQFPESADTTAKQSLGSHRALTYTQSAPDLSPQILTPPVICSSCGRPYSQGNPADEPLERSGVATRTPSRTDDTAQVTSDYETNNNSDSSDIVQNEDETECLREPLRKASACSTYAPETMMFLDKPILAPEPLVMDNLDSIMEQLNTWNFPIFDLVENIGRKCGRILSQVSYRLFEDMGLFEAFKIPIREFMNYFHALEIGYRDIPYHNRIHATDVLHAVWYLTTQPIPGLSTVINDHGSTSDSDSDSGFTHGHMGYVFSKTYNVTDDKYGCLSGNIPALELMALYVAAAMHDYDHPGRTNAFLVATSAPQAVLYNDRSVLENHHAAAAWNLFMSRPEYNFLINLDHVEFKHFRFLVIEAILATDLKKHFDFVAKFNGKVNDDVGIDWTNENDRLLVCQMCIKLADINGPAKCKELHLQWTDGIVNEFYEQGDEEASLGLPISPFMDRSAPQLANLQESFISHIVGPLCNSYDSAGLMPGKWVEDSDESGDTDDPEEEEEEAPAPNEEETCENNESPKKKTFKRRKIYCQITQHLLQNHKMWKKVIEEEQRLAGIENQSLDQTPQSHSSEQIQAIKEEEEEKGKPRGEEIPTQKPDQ
T2 sequence (Q07343 1-564 isoform Q07343-2): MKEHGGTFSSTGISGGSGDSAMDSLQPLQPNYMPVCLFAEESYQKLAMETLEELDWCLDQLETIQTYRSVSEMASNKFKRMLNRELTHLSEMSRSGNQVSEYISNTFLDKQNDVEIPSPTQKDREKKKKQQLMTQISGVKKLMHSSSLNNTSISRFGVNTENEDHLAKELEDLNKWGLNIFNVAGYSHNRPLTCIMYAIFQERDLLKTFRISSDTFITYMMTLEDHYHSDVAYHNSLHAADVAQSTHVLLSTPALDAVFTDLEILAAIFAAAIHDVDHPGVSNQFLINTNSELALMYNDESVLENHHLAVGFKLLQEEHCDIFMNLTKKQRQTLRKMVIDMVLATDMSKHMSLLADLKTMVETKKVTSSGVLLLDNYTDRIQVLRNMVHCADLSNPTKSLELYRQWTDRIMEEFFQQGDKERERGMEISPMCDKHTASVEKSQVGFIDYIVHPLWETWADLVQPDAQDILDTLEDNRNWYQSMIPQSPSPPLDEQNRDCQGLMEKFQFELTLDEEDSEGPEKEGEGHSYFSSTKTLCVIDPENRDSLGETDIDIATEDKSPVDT

For orientation: IC50 means the concentration needed to halve the response being measured. In the case of `COc1cc2c(cc1OC)-c1c/c(=N\c3c(C)cc(C4CC4)cc3C)n(CCNC(=O)c3c(O)nnn3C)c(=O)n1CC2` [Compound 6, (E)-N-(2-(2-((4-cyclopropyl-2,6-dimethylphenyl)imino)-9,10-dimethoxy-4-oxo-6,7-dihydro-2H-pyrimido[6,1-a]isoquinolin-3(4H)-yl)ethyl)-4-hydroxy-1-methyl-1H-1,2,3-triazole-5-carboxamide], the figures for the IC50 (on PDE3A recombinant enzyme; in series [1]) were 530 pM and 8430 pM, respectively.
For `CCOc1cc2c(cc1OC)-c1c/c(=N\c3c(C)cc(C4CC4)cc3C)n(CCNC(=O)c3c(O)nnn3C)c(=O)n1CC2` [Compound 8, (E)-N-(2-(2-((4-cyclopropyl-2,6-dimethylphenyl)imino)-9-ethoxy-10-methoxy-4-oxo-6,7-dihydro-2H-pyrimido[6,1-a]isoquinolin-3(4H)-yl)ethyl)-4-hydroxy-1-methyl-1H-1,2,3-triazole-5-carboxamide], in that order: 590 pM and 1400 pM.
In the same order, the values of `CCOc1cc2c(cc1OC)-c1c/c(=N\c3c(C)cc(OC)cc3C)n(CCNC(=O)c3c(O)nnn3C)c(=O)n1CC2` [Compound 9, (E)-N-(2-(9-ethoxy-10-methoxy-2-((4-methoxy-2,6-dimethylphenyl)imino)-4-oxo-6,7-dihydro-2H-pyrimido[6,1-a]isoquinolin-3(4H)-yl)ethyl)-4-hydroxy-1-methyl-1H-1,2,3-triazole-5-carboxamide] are 500 pM and 1520 pM.
On to `COc1cc2c(cc1OC)-c1c/c(=N\c3c(C)cc(C)cc3C)n(CCNC(N)=O)c(=O)n1CC2` [RPL554], for which the PDE4 inhibitory activity result in the series on PDE4 was “unsatisfactory”. Further, the plasma clearance result in series [2] is reported as “high”. The solubility entry in series [3] is “poor”.

The record behind these values is patent US20250171436A1, “Tricyclic Fused Heterocyclic PDE3/4 Dual Inhibitor and Use Thereof” (XIZANG HAISCO PHARMACEUTICAL CO., LTD., priority 2022, published 2025).
